Data as given in paper PMC6037779, “Repurposing drugs to target the malaria parasite unfolding protein response” (Scientific Reports, 2018).

Assays:
PfGRP78-NBD mut (Y39F) = target: T1, PfGRP78-NBD mut (Y39F) (Plasmodium falciparum, UniProt Q05866, Y39F); test: SPR (Biacore) binding to PfGRP78-NBD Y39F mutant; conditions: ± standard error, 25 °C
T1 construct: His-tag (pET28-MHL, TEV site) (N, cleaved yes); made in house; host or cells: E. coli BL21(DE3)
Description: To quantify the binding affinities of PfGRP78-NBD for the selected compounds, dissociation constants (Kd) were determined by surface plasmon resonance (SPR). […] Purified PfGRP78-FL, PfGRP78-NBD wild-type and mutant, and human GRP78-NBD were immobilized on a CM5 sensorchip using NHS/EDC coupling following the manufacturer protocol to a level of <10,000 RUs, a reference surfaces without immobilized proteins served as a control for nonspecific binding and refractive index changes. Seven different concentrations of the ligands between 0.4 nM to 1 mM, were injected in triplicate over the sensor chip at 30 µL/min in random order. The running buffer was 10 mM HEPES, pH 7.4, 150 mM NaCl, 0.005% P20, 1% DMSO and 2 mM MgCl2. Buffer only injections were used as blanks. The Biacore responses recorded during the 30 seconds of the injection were used to estimate the association constant (kon) and the 300 seconds after the injection were used to estimate the dissociation constant (koff). All dissociation and kinetic constants were estimated using double subtracted sensorgrams[40] using BiaEvaluation Software (GE Healthcare). All the reported parasite dissociation constants (Kd) were estimated with affinity analysis, and all the reported human Kds were calculated from kinetic constants.

PfGRP78-NBD = target: T2, PfGRP78-NBD (Plasmodium falciparum, UniProt Q05866); test: DSF thermal shift, PfGRP78-NBD; format: binding; conditions: compound 0.5 mM; shifts above or below 1 °C significant
T2 construct: His-tag (pET28-MHL, TEV site) (N, cleaved yes); made in house; host or cells: E. coli BL21(DE3)
T2 sequence (Q05866 26-404): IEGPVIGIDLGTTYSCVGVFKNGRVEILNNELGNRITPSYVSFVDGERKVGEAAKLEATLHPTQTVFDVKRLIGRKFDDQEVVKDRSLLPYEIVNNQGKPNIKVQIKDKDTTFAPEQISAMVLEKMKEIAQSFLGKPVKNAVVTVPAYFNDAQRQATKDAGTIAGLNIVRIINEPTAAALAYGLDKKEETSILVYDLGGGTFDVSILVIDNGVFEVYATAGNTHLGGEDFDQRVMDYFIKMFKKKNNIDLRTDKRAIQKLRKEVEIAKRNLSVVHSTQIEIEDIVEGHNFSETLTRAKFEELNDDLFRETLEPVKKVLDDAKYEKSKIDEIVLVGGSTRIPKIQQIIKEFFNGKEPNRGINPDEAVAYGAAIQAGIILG
Description: The Plasmodium and human GRP78 NBD differences were further characterized by measuring their interaction with ATP, ADP, and several compounds referenced in the literature as GRP78 inhibitors (Fig. 3a). Initially, their binding was determined using a DSF (Differential Scanning Fluorimetry) assay. In this assay, an interaction between the chaperone and a compound was measured as a change in the protein’s melting temperature (Tm), by subtracting the Tm of the protein by itself to the melting value of the protein in the presence of the compound. Differences above or below 1 °C between the melting temperatures (ΔTm) were considered indicative of a protein-compound interaction. As expected, the Plasmodium GRP78 chaperone interacted with both ATP and ADP. Four of the six compounds tested had significant effects on protein thermal stability (Fig. 3b).
DSF screening was carried out using a CFX96 Touch Real-Time PCR Detection System (BioRad, California). The PfGRP78-FL, PfGRP78-NBD wild type and mutant, and human GRP78-NBD were buffered in 25 mM hepes pH 7.5, 250 mM NaCl and assayed in a 96-well format. […]. The concentration was optimized for each protein to avoid saturation of the fluorescence detector. The GRP78 inhibitors were used at a final concentration of 0.5 mM. SYPRO Orange (Life Technologies, USA) was added as a fluorescence probe in a dilution of 1:1000. The experiments were conducted between 18 °C to 90 °C at a heating rate of 1 °C per minute. The recorded fluorescence reads were fitted to the Boltzmann sigmoid function using DMAN software. The inflection point of each fitted curve is defined as the melting temperature (Tm). The observed temperature shift, ΔTm, was recorded as the difference between Tm of the protein with ligand minus Tm of the protein without ligand. Thermal shifts above or below 1 °C were considered significant.

PfGRP78-NBD Y39F = target: T3, PfGRP78-NBD Y39F (Plasmodium falciparum, UniProt Q05866, Y39F); test: DSF thermal shift, PfGRP78-NBD Y39F mutant; format: binding
T3 construct: His-tag (pET28-MHL, TEV site) (N, cleaved yes); made in house; host or cells: E. coli BL21(DE3)
T3 sequence (Q05866 26-404 Y39F): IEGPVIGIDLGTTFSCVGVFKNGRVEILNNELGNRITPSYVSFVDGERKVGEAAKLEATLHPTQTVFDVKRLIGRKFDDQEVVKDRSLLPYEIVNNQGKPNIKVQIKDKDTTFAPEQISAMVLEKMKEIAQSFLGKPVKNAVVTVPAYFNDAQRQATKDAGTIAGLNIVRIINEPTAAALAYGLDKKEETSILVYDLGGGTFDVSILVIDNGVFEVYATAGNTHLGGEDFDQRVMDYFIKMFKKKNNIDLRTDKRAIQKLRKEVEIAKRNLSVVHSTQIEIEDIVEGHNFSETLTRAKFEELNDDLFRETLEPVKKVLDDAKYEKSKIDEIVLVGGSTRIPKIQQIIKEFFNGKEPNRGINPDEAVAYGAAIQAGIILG
Description: Initially, their binding was determined using a DSF (Differential Scanning Fluorimetry) assay. In this assay, an interaction between the chaperone and a compound was measured as a change in the protein’s melting temperature (Tm), by subtracting the Tm of the protein by itself to the melting value of the protein in the presence of the compound. Differences above or below 1 °C between the melting temperatures (ΔTm) were considered indicative of a protein-compound interaction.
DSF screening was carried out using a CFX96 Touch Real-Time PCR Detection System (BioRad, California). The PfGRP78-FL, PfGRP78-NBD wild type and mutant, and human GRP78-NBD were buffered in 25 mM hepes pH 7.5, 250 mM NaCl and assayed in a 96-well format. The final concentration of the protein sample was optimized between 0.05 and 0.2 mg/ml for each protein. The concentration was optimized for each protein to avoid saturation of the fluorescence detector. The GRP78 inhibitors were used at a final concentration of 0.5 mM. SYPRO Orange (Life Technologies, USA) was added as a fluorescence probe in a dilution of 1:1000.

[1] = system: Plasmodium falciparum 3D7; test: In vitro growth inhibition assay (SYBR Green I), strain 3D7; format: cell-based; conditions: Plasmodium falciparum, 3D7; chloroquine-sensitive strain; 72 hours; average of three ± SD; read-out: EC50, growth inhibition, P. falciparum 3D7
Description: A major goal of our study was to evaluate the drug target potential of P. falciparum GRP78, thus we evaluated the effect of the chaperone inhibition on the malaria parasite. Our approach took advantage of several GRP78 inhibitors (Fig. 3a) previously characterized against human cancer cell lines, which were commercially available[20],[24]–[27]. These compounds were tested against two different parasite strains with opposite sensitivity towards the antimalarial drug chloroquine, 3D7 (sensitive) and W2 (resistant). […] A synchronized P. falciparum culture, with over 80% ring forms, was used in the growth inhibition assay. Each strain was assayed at 0.5% parasitaemia and 1.5% hematocrit. A 190 µL aliquot of parasite culture was dispensed per well to microplates that were pre-dispensed with the compounds at various dilutions. […] Dilutions of GRP78 inhibitors and DHA were prepared in water with a final concentration of DMSO below 0.05% (v/v). […] After incubation, the plates were subject to a freeze-thaw cycle (−80 °C) and the parasite growth was quantified by the SYBR Green I method as previously described. Briefly, 100 µl of homogenized parasite culture was transferred into 96-well black plates. 100 µl of SYBR Green lysis buffer (2x SYBR Green I, 100 mM Tris-HCl pH 7.5, 10 mM EDTA, 0.016% Saponin and 1.6% Triton X-100) were added to each well. The plates were incubated at room temperature in darkness for 1 hour.
Growth inhibition experiments were conducted at least three times per compound. […] The statistical analysis was performed with the software Prism 7 (GraphPad Software, San Diego, CA).

T1 sequence (Q05866 26-404 Y39F): as above

## COc1ccc(-c2nc(-c3cc(C(F)(F)F)cc(C(F)(F)F)c3)n(Cc3ccc(C(N)=O)cc3)c2-c2ccc(OC)cc2)cc1 [Apoptozole]
PfGRP78-NBD mut (Y39F)
  affinity constant (Kd) determined by SPR, PfGRP78-NBD mut: N.B.
PfGRP78-NBD
  DSF effect on thermal stability of PfGRP78-NBD: increased the thermal stability
PfGRP78-NBD Y39F
  DSF binding to PfGRP78-NBD Y39F: failed to bind
[1]
  EC50: 6.8 ± 1.4 µM
